# Experimental data reported in the supplement of paper PMC10307832.
# Assays:
# Experiment in all cases: relative viability (nuclei count vs DMSO), 5 days (fraction); higher = more cells survive
# NCI-H1650 = tested on: NCI-H1650
# How it was run: (§1)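 Lung cancer cell lines, seeded in 1536-well plates, were treated the following day by pin tool with a single drug or with five library-drug doses (not always all listed) in √10 steps on top of a fixed anchor-drug dose. Cells were fixed and nuclei stained in one step after 5 days, and nuclei were counted. Relative viability is the nuclei count for treated wells divided by that for vehicle wells, reported as medians of duplicate plates.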
# NCI-H1734 = tested on: NCI-H1734
# How it was run: as §1
# NCI-H1915 = tested on: NCI-H1915
# How it was run: as §1
# NCI-H2023 = tested on: NCI-H2023
# How it was run: as §1
# NCI-H2087 = tested on: NCI-H2087
# How it was run: as §1
# NCI-H3122 = tested on: NCI-H3122
# How it was run: as §1
# NCI-H358 = tested on: NCI-H358
# How it was run: as §1
# NCI-H650 = tested on: NCI-H650
# How it was run: as §1
# NCI-H661 = tested on: NCI-H661
# How it was run: as §1
# NCI-H838 = tested on: NCI-H838
# How it was run: as §1
# SK-MES-1 = tested on: SK-MES-1
# How it was run: as §1
compound,measurement,setting,value
O=C(O)CCCCC(CCSCc1ccccc1)SCc1ccccc1 (stereo not given) [CPI-613] + CC(=O)c1c(C)c2cnc(Nc3ccc(N4CCNCC4)cn3)nc2n(C2CCCC2)c1=O [Palbociclib] (partner 0.5 µM),relative viability,NCI-H1650; first compound 5 µM,0.326
same,relative viability,NCI-H1650; first compound 15.81 µM,0.276
same,relative viability,NCI-H1650; first compound 50 µM,0.317
same,relative viability,NCI-H1650; first compound 158.11 µM,0.0807
same,relative viability,NCI-H1650; first compound 500 µM,0.0173
same,relative viability,NCI-H1734; first compound 5 µM,0.314
same,relative viability,NCI-H1734; first compound 15.81 µM,0.274
same,relative viability,NCI-H1734; first compound 50 µM,0.335
same,relative viability,NCI-H1734; first compound 158.11 µM,0.199
same,relative viability,NCI-H1734; first compound 500 µM,0.144
same,relative viability,NCI-H1915; first compound 5 µM,0.5
same,relative viability,NCI-H1915; first compound 15.81 µM,0.494
same,relative viability,NCI-H1915; first compound 50 µM,0.506
same,relative viability,NCI-H1915; first compound 158.11 µM,0.23
same,relative viability,NCI-H1915; first compound 500 µM,0.0812
same,relative viability,NCI-H2023; first compound 5 µM,0.335
same,relative viability,NCI-H2023; first compound 15.81 µM,0.323
same,relative viability,NCI-H2023; first compound 50 µM,0.35
same,relative viability,NCI-H2023; first compound 158.11 µM,0.0317
same,relative viability,NCI-H2023; first compound 500 µM,0.0063
same,relative viability,NCI-H2087; first compound 5 µM,0.253
same,relative viability,NCI-H2087; first compound 15.81 µM,0.197
same,relative viability,NCI-H2087; first compound 50 µM,0.19
same,relative viability,NCI-H2087; first compound 158.11 µM,0.0923
same,relative viability,NCI-H2087; first compound 500 µM,0.0098
same,relative viability,NCI-H3122; first compound 5 µM,0.178
same,relative viability,NCI-H3122; first compound 15.81 µM,0.198
same,relative viability,NCI-H3122; first compound 50 µM,0.175
same,relative viability,NCI-H3122; first compound 158.11 µM,0.155
same,relative viability,NCI-H3122; first compound 500 µM,0.145
same,relative viability,NCI-H358; first compound 5 µM,0.114
same,relative viability,NCI-H358; first compound 15.81 µM,0.134
same,relative viability,NCI-H358; first compound 50 µM,0.154
same,relative viability,NCI-H358; first compound 158.11 µM,0.0757
same,relative viability,NCI-H358; first compound 500 µM,0.0449
same,relative viability,NCI-H650; first compound 5 µM,0.337
same,relative viability,NCI-H650; first compound 15.81 µM,0.312
same,relative viability,NCI-H650; first compound 50 µM,0.306
same,relative viability,NCI-H650; first compound 158.11 µM,0.269
same,relative viability,NCI-H650; first compound 500 µM,0.262
same,relative viability,NCI-H661; first compound 5 µM,0.404
same,relative viability,NCI-H661; first compound 15.81 µM,0.374
same,relative viability,NCI-H661; first compound 50 µM,0.387
same,relative viability,NCI-H661; first compound 158.11 µM,0.24
same,relative viability,NCI-H661; first compound 500 µM,0.132
same,relative viability,NCI-H838; first compound 5 µM,0.21
same,relative viability,NCI-H838; first compound 15.81 µM,0.189
same,relative viability,NCI-H838; first compound 50 µM,0.216
same,relative viability,NCI-H838; first compound 158.11 µM,0.139
same,relative viability,NCI-H838; first compound 500 µM,0.0859
same,relative viability,SK-MES-1; first compound 5 µM,0.305
same,relative viability,SK-MES-1; first compound 15.81 µM,0.279
same,relative viability,SK-MES-1; first compound 50 µM,0.277
same,relative viability,SK-MES-1; first compound 158.11 µM,0.14
same,relative viability,SK-MES-1; first compound 500 µM,0.145
